Measurements taken from US11931335B2, “Enhancing autophagy or increasing longevity by administration of urolithins or precursors thereof” (Amazentis SA, priority 2012, dated 2024).

How the values were obtained:
[1] = system: mouse C2C12 myoblasts; assay: Autophagy western blot in C2C12 myoblasts; assay type: cell-based; conditions: 10 μM, 20 μM, and 50 μM, 16 hours
Protocol: C2C12 myoblast were cultured in Dulbecco's modified Eagle's medium (DMEM) including 4.5 g/L glucose, 20% fetal calf serum, and 50 μg/mL gentamicin. Urolithin A was dissolved in DMSO in a stock solution of […]. Cells were treated at final concentrations of urolithin A of 10 μM, 20 μM, and 50 μM for a period 16 hours. Control cells were treated with DMSO at an equivalent final concentration for the same period and served as the untreated control.
(§1) At the end of treatment, cells were lysed with RIPA buffer and applied to SDS-PAGE and analyzed by western blot. Protein expression levels were examined for autophagy-related proteins LC3-I and LC3-II (Cell Signaling antibody #4108), p62 (Cell Signaling antibody #5114), AMPKα (Cell Signaling antibody #2603), and p-AMPKα(Cell Signaling antibody #2531). The housekeeping protein, R-actin (Cell Signaling Antibody #4967) level was measured as a loading control.

[2] = system: gastrocnemius muscles of aged C57BL/6J mice; assay: Autophagy in skeletal muscle of aged mice; assay type: in vivo, mouse; conditions: 50 mg/kg/day in food, 34 weeks
Protocol: (§2) Locomotor activity may be also assessed by measuring animal movements using infrared detection. To determine the effects of urolithin A on spontaneous locomotor activity in aged animals, 16-month-old C57BL/6J mice were treated with either a standard rodent diet or a diet containing urolithin A mixed with food to reach a dosing of 50 mg/kg/day delivered to mice. Following 34 weeks of treatment with urolithin A, mice were placed in a locomotor activity monitoring system, TSE Systems. Infrared transmitters and receivers are placed in the x, y, and z axis. Interruption of the infrared beams in the x, y axis by the passage of the mouse, allows for a measurement of the horizontal movement (ambulation). Interruption of the infrared beams in the z axis by the mouse, allows for the measurement of rearing behavior. Each beam interruption results in one count being recorded. Total counts were measured for each 30 minute period over a two day period. The total counts observed during the 12 hour dark period, which corresponds to the time of highest activity in mice, were summed for each animal.
Following 34 weeks of treatment, the mice from Example 19 were sacrificed and the organs were collected. The gastrocnemius muscles were assessed for the presence of autophagy by the assessment of the change in the ratio of the autophagy markers LC3 and p62 using western blot analysis. Each lane corresponds to a muscle sample from an individual mouse. The ratio of LC3-II/LC3-I increased in the muscles of urolithin A (UA)-treated mice versus untreated mice. This was accompanied by a decrease in the levels of p62 in the muscles of UA treated versus untreated mice. These shifts in the levels of LC3 and p62 in the muscle of mice are consistent with an increase in the level of autophagy taking place.

[3] = system: C. elegans wild type (N2, Bristol); assay: Mobility tracking of C. elegans during aging; assay type: in vivo; conditions: days 1, 3, 5 and 8 of adulthood; 50 μM; FIG. 12
Protocol: To examine the effect of urolithins on muscle activity during aging, C. elegans mobility was examined over time. Synchronized populations of wild-type nematodes were prepared by standard methods and cultivated at 20° C. on NGM agar containing E. Coli (OP50) with or without test compounds (ellagic acid (EA), urolithins A (UA), and B (UB)). At Day 0, five plates were prepared, each containing 10 young adult worms. Worms were assayed for mobility at different ages, day 1, 3, 5 and 8 of adulthood. The wild type (N2, Bristol) worm strain was employed for these studies.
For C. elegans movement tracking, 45 seconds of video were recorded using a Nikon DS-L2/DS-Fi1 camera and controller setup, attached to both a computer and a standard bright field microscope, tracking an entire plate of 10 worms, with 5 plates per condition. The movement of worms during this time was calculated using an adapted version of the freely-available software Parallel Worm Tracker for MATLAB. The total movement over the 45 second tracking was averaged across all worms for each condition. This experiment was repeated twice with between 40 and 70 worms per condition.

[4] = system: primary mouse hepatocytes; assay: Autophagy western blot in primary hepatocytes; assay type: cell-based; conditions: 16 hour
Protocol: Isolated primary hepatocytes were cultured in Medium 199 including 4.5 g/L glucose, 10% fetal calf serum, 0.1 mM NEAA, 10 mM HEPES and 50 μg/mL gentamicin. These cells were then treated with either 10 μM, 20 μM or 50 μM of urolithin A for a 16 hour period, after which cells were lysed and prepared for Western Blot analysis.
Protein expression levels were examined for autophagy related proteins LC3-I and II (Cell Signaling antibody #4108), p62 (Cell Signalling antibody #5114), AMPKα (Cell Signaling antibody #2603), and p-AMPKα(Cell Signaling antibody #2531). The housekeeping protein, HSP90 (BD Transduction Laboratories antibody #610418) level was measured as a loading control.

[5] = system: aged C57BL/6J mice; assay: Locomotor activity by infrared detection in aged mice; assay type: in vivo, mouse; conditions: 50 mg/kg/day, 34 weeks, 12 hour dark period, FIG. 23
Protocol: as §2

[6] = system: human primary skeletal muscle cells; assay: Autophagy western blot in human primary myoblasts; assay type: cell-based; conditions: 10 μM, 20 μM, and 50 μM, 16 hours
Protocol: Human primary skeletal myocytes were cultured in vitro and exposed to increasing concentrations of urolithin A, including 10 μM, 20 μM, and 50 μM for 16 hours. Human skeletal myoblasts were grown in DMEM plus 2% horse serum. Control cells were treated with DMSO at an equivalent final concentration for the same period and served as the untreated control.
as §1

[7] = system: C. elegans strain DA2122 (LGG-1::GFP); assay: Autophagy induction, LGG-1::GFP dots in C. elegans; assay type: in vivo; conditions: 50 μM from eggs to second day of adulthood; FIGS. 9A-9B
Protocol: C. elegans strains were cultured at 20° C. on nematode growth media (NGM) agar plates seeded with OP50 bacteria and containing 50 μM urolithin A or a corresponding concentration of DMSO as a control. The worms were treated from eggs to the second day of the adulthood. The strains used were the DA2122 (adIs2122[lgg-1::GFP+rol-6(su1006)]), which is a transgenic line expressing the LGG-1 protein (homolog of LC3 in human) fused with the green fluorescent protein (GFP). For picture acquisition, worms were immobilized with tetramisole (Sigma) and mounted on 6% agarose pads on glass slides. Images were acquired using Zeiss LSM 700 upright confocal microscope (Carl Zeiss A G, Oberkochen, Germany) from the same part of C. elegans. For each condition multiple worms were observed and imaged with the same initial parameters. Image processing and quantification of autophagic events was performed with the Fiji software.

[8] = system: mitochondria in muscle of C. elegans strain SJ4103; assay: Mitochondrial GFP reporter in muscle of C. elegans; assay type: in vivo; conditions: 50 μM from eggs, GFP after one day of adulthood; FIG. 7
Protocol: The worms were treated from eggs to the first day of adulthood. The strains used were the SJ4103 (zcIs14[myo-3::GFP(mit)]), which is a stable transgenic line expressing a mitochondrially localized green fluorescent protein (GFP) with a cleavable mitochondrial import signal peptide under the control of the specific body wall muscle promoter myo-3. GFP expression and quantification was carried out according to the protocol previously described. […] Fluorimetric assays were performed using a Victor X4 multilabel plate reader (Perkin-Elmer Life Science). Eighty worms were picked at random (20 worms per well of a black-walled 96-well plate), and each well was read four times and averaged.

## O=c1oc2cc(O)ccc2c2ccc(O)cc12 [Urolithin A, urolithin A]
[1]
  levels of p62: decrease
  ratio of pAMPKα/AMPKα: increasing several fold
[1]; FIG. 16
  ratio of LC3-II to LC3-I: dose-dependent increase
[2]
  levels of p62: decreased
  ratio of p-AMPKα/AMPKα: increase
[2]; FIG. 24
  ratio of LC3-II/LC3-I: increased
[2]; listed as UA
  levels of p62: decrease
[3]
  age related mobility decline: marked ability to reduce muscle function decline
[4]; 10 μM, 20 μM or 50 μM
  P62 protein levels: decrease
[4]; 10 μM, 20 μM or 50 μM, FIG. 15
  ratio of LC3-II to LC3-I: dose-dependent effect and increase
[4]; 20 and […]
  ratio of p-AMPKα/AMPK-u vs control cells: above 10 fold
[5]
  increase in ambulation: 14%
  increase in rearing: 25%
[6]
  levels of p62: decrease
  ratio of pAMPKα/AMPKα: increasing several fold
[6]; FIG. 17
  ratio of LC3-II to LC3-I: dose-dependent increase
[7]
  number of autophagic events (LGG-1::GFP dots per focal field): increases the number of autophagic events
[8]
  expression of the mitochondrial GFP reporter (myo-3 promoter): striking increase in GFP expression
